Test results as given in patent publication US20250388574A1, “HETEROCYCLIC COMPOUNDS AS TRIGGERING RECEPTOR EXPRESSED ON MYELOID CELLS 2 AGONISTS AND METHODS OF USE” (AMGEN INC., priority 2020, published 2025).
Read-outs that look alike come from different tables or passages of the source.

Target: hTREM2 (Homo sapiens, UniProt Q9NZC2)
Test: Phospho-Syk AlphaScreen/AlphaLISA assay in TREM2 and DAP12 overexpressing HEK293 cells (Example A1)
Type: cell-based
Design: expressed in transfected cells
Procedure, shortened: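 Single-cell-cloned HEK293 stably overexpressing TREM2 and DAP12, plated 20,000 cells/well for 20 h, then exposed to compounds (1% DMSO) 45 min at room temperature. Lysates probed for phospho-Syk by AlphaLISA sandwich (anti-pSyk, biotinylated anti-Syk); signal normalized to percent of control (100 nM anti-TREM2 antibody vs isotype) and fitted by 4-parameter logistic.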

[1] = HEK293 cells, read-out: hTREM2 EC50

Chain of hTREM2 (Q9NZC2 19-230): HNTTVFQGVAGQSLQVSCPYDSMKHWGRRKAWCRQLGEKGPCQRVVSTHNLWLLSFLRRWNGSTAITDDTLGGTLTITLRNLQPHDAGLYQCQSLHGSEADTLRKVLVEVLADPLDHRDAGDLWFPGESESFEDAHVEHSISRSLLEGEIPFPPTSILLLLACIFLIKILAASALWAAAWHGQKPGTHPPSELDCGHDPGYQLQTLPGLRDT
Chain of hTREM2 (O43914 22-113 partner): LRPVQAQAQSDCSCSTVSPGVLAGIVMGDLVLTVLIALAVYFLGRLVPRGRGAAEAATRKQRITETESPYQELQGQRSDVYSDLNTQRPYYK

Emax (HEK293 cells) | EC50 [1] [µM] | Structure (SMILES) | EC50 (hTREM2 EC50, HEK293 cells) [µM]
++++ (Emax>300) | 0.05 to 0.5 | CCn1c(C)nc2cc(N3CCO[C@H](c4noc(C)n4)C3)nc(-c3ccc(Cl)cc3F)c2c1=O [Example 147, 5-(4-chloro-2-fluorophenyl)-3-ethyl-2-methyl-7-((2S)-2-(5-methyl-1,2,4-oxadiazol-3-yl)-4-morpholinyl)pyrido[4,3-d]pyrimidin-4(3H)-one] | 
++++ (Emax>300) | 3 to 100 | CCn1c(C)nc2cc(N3CCO[C@@H](c4noc(C)n4)C3)nc(-c3ccc(Cl)cc3F)c2c1=O [Example 148, 5-(4-chloro-2-fluorophenyl)-3-ethyl-2-methyl-7-((2R)-2-(5-methyl-1,2,4-oxadiazol-3-yl)-4-morpholinyl)pyrido[4,3-d]pyrimidin-4(3H)-one] | 
+++ (Emax>200 and ≤300) | < 0.05 | CCn1c(C)nc2cc(N3CCO[C@@H](c4ccnc(C)c4)C3)nc(-c3ccc(Cl)cc3F)c2c1=O [Example 149, 5-(4-chloro-2-fluorophenyl)-3-ethyl-2-methyl-7-((2S)-2-(2-methyl-4-pyridinyl)-4-morpholinyl)pyrido[4,3-d]pyrimidin-4(3H)-one] | 
+++ (Emax>200 and ≤300) | < 0.05 | CCn1c(C)nc2cc(N3CCO[C@@H](c4ccnc(C)c4)C3)nc(-c3ccc(F)cc3F)c2c1=O [Example 150, 5-(2,4-difluorophenyl)-3-ethyl-2-methyl-7-((2S)-2-(2-methyl-4-pyridinyl)-4-morpholinyl)pyrido[4,3-d]pyrimidin-4(3H)-one] | 
+++ (Emax>200 and ≤300) | < 0.05 | CCn1c(C)nc2cc(N3CCO[C@@H](c4cnn(C5CC5)c4)C3)nc(-c3ccc(F)cc3F)c2c1=O [Example 151, 7-((2S)-2-(1-cyclopropyl-1H-pyrazol-4-yl)-4-morpholinyl)-5-(2,4-difluorophenyl)-3-ethyl-2-methylpyrido[4,3-d]pyrimidin-4(3H)-one] | 
+++ (Emax>200 and ≤300) | < 0.05 | CCCn1c(C)nc2cc(N3CCO[C@@H](c4cnn(C)c4)C3)nc(-c3ccc(Cl)cc3F)c2c1=O [Example 152, 5-(4-chloro-2-fluorophenyl)-2-methyl-7-((2S)-2-(1-methyl-1H-pyrazol-4-yl)-4-morpholinyl)-3-propylpyrido[4,3-d]pyrimidin-4(3H)-one] | 
++++ (Emax>300) | 0.05 to 0.5 | CCCn1c(C)nc2cc(N3CCO[C@@H](c4cnn(C)c4)C3)nc(-c3ncc(Cl)cc3F)c2c1=O [Example 153, 5-(5-chloro-3-fluoro-2-pyridinyl)-2-methyl-7-((2S)-2-(1-methyl-1H-pyrazol-4-yl)-4-morpholinyl)-3-propylpyrido[4,3-d]pyrimidin-4(3H)-one] | 
++++ (Emax>300) | 3 to 100 | CCCn1c(C)nc2cc(N3CCO[C@H](c4ccnn4C)C3)nc(-c3ccc(Cl)cc3F)c2c1=O [Example 154, 5-(4-chloro-2-fluorophenyl)-2-methyl-7-((2S)-2-(1-methyl-1H-pyrazol-5-yl)-4-morpholinyl)-3-propylpyrido[4,3-d]pyrimidin-4(3H)-one] | 

More lines, now with the values behind:

Structure (SMILES) | Emax (HEK293 cells) | EC50 [1] [µM] | EC50 (hTREM2 EC50, HEK293 cells) [µM]
Cc1nc2cc(N3CCO[C@@H](c4cnn(C5CN(C(=O)OC(C)(C)C)C5)c4)C3)nc(-c3ccc(Cl)cc3F)c2c(=O)n1C [Example 134, 2-methyl-2-propanyl 3-(4-((2S)-4-(5-(4-chloro-2-fluorophenyl)-2,3-dimethyl-4-oxo-3,4-dihydropyrido[4,3-d]pyrimidin-7-yl)-2-morpholinyl)-1H-pyrazol-1-yl)-1-azetidinecarboxylate] | ++++ (Emax>300) | 0.05 to 0.5 | 
Cc1nc2cc(N3CCO[C@@H](c4cnn(C(F)CF)c4)C3)nc(-c3ccc(Cl)cc3F)c2c(=O)n1C (stereo partly drawn) [Example 135, 5-(4-chloro-2-fluorophenyl)-7-((2S)-2-(1-(1,2-difluoroethyl)-1H-pyrazol-4-yl)-4-morpholinyl)-2,3-dimethylpyrido[4,3-d]pyrimidin-4(3H)-one] |  |  | 0.05 to 0.5
Cc1nc2cc(N3CCO[C@@H](c4cnn(C5CC5)c4)C3)nc(-c3ccc(Cl)cc3F)c2c(=O)n1C [Example 136, 5-(4-chloro-2-fluorophenyl)-7-((2S)-2-(1-cyclopropyl-1H-pyrazol-4-yl)-4-morpholinyl)-2,3-dimethylpyrido[4,3-d]pyrimidin-4(3H)-one] | ++++ (Emax>300) | < 0.05 | 
C=Cn1cc([C@H]2CN(c3cc4nc(C)n(C)c(=O)c4c(-c4ccc(Cl)cc4F)n3)CCO2)cn1 [Example 137, 5-(4-chloro-2-fluorophenyl)-7-((2S)-2-(1-ethenyl-1H-pyrazol-4-yl)-4-morpholinyl)-2,3-dimethylpyrido[4,3-d]pyrimidin-4(3H)-one] | ++++ (Emax>300) | < 0.05 | 
Cc1nc2cc(N3CCO[C@@H](c4cnn(C5CN(C)C5)c4)C3)nc(-c3ccc(Cl)cc3F)c2c(=O)n1C [Example 138, 5-(4-chloro-2-fluorophenyl)-2,3-dimethyl-7-((2S)-2-(1-(1-methyl-3-azetidinyl)-1H-pyrazol-4-yl)-4-morpholinyl)pyrido[4,3-d]pyrimidin-4(3H)-one] | +++ (Emax>200 and ≤300) | 0.05 to 0.5 | 
Cc1nc2cc(N3CCO[C@@H](c4cnn(C(F)(F)F)c4)C3)nc(-c3ccc(Cl)cc3F)c2c(=O)n1C [Example 141, 5-(4-chloro-2-fluorophenyl)-2,3-dimethyl-7-((2S)-2-(1-(trifluoromethyl)-1H-pyrazol-4-yl)-4-morpholinyl)pyrido[4,3-d]pyrimidin-4(3H)-one] | ++++ (Emax>300) | 0.05 to 0.5 | 
Cn1cc([C@H]2CN(c3cc4nc(C5CC5)n(C)c(=O)c4c(-c4ccc(Cl)cc4F)n3)CCO2)cn1 [Example 142, 5-(4-chloro-2-fluorophenyl)-2-cyclopropyl-3-methyl-7-((2S)-2-(1-methyl-1H-pyrazol-4-yl)-4-morpholinyl)pyrido[4,3-d]pyrimidin-4(3H)-one] | ++++ (Emax>300) | 0.05 to 0.5 | 
Cn1cc([C@H]2CN(c3cc4nc(C(F)(F)F)n(C)c(=O)c4c(-c4ccc(Cl)cc4F)n3)CCO2)cn1 [Example 143, 5-(4-chloro-2-fluorophenyl)-3-methyl-7-((2S)-2-(1-methyl-1H-pyrazol-4-yl)-4-morpholinyl)-2-(trifluoromethyl)pyrido[4,3-d]pyrimidin-4(3H)-one] | ++++ (Emax>300) | 0.05 to 0.5 | 
CCn1c(C(F)(F)F)nc2cc(N3CCO[C@@H](c4cnn(C)c4)C3)nc(-c3ccc(Cl)cc3F)c2c1=O [Example 144, 5-(4-chloro-2-fluorophenyl)-3-ethyl-7-((2S)-2-(1-methyl-1H-pyrazol-4-yl)-4-morpholinyl)-2-(trifluoromethyl)pyrido[4,3-d]pyrimidin-4(3H)-one] | ++++ (Emax>300) | 0.05 to 0.5 | 
Cc1nc2cc(N3CCO[C@@H](c4cnn(C)c4)C3)nc(-c3ccc(Cl)cc3F)c2c(=O)[nH]1 [Example 145, 5-(4-chloro-2-fluorophenyl)-2-methyl-7-((2S)-2-(1-methyl-1H-pyrazol-4-yl)-4-morpholinyl)pyrido[4,3-d]pyrimidin-4(3H)-one] | ++ (Emax>100 and ≤200) | 0.5 to 3 | 
CCn1c(C)nc2cc(N3CCO[C@@H](c4cnn(C)c4)C3)nc(-c3ccc(Cl)cc3F)c2c1=O [Example 146, 5-(4-chloro-2-fluorophenyl)-3-ethyl-2-methyl-7-((2S)-2-(1-methyl-1H-pyrazol-4-yl)-4-morpholinyl)pyrido[4,3-d]pyrimidin-4(3H)-one] | ++++ (Emax>300) | < 0.05 | 
